This note sets out measurements from patent US12098144B2, “Piperazine indazole glucocorticoid receptor antagonists” (Corcept Therapeutics Incorporated, priority 2021, dated 2024).

Each structure is given as a SMILES string.

The assay concerns the target T1, glucocorticoid receptor (Homo sapiens, UniProt P04150).
T1 construct: endogenous in cells; ATCC cat
T1 sequence (P04150 1-777): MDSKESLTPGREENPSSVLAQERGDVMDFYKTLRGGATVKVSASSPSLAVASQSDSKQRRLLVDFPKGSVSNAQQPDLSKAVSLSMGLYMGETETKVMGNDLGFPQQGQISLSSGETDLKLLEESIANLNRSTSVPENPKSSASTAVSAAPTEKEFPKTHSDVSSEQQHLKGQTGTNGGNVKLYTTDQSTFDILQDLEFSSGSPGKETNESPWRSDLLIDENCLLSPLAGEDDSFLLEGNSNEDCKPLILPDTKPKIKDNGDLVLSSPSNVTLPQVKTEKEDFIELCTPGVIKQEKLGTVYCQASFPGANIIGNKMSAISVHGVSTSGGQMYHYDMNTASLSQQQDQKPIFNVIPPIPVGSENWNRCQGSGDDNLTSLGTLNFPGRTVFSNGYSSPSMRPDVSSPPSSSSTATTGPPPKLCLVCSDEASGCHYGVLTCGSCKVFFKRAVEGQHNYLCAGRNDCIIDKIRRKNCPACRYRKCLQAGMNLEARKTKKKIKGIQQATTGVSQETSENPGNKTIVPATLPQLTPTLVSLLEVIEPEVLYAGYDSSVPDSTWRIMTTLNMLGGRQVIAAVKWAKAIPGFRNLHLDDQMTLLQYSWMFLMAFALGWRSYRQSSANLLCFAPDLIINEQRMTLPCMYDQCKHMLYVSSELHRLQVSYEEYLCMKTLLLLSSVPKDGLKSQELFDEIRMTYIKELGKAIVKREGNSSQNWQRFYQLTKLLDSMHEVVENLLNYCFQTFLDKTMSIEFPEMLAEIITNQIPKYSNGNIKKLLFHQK
Description: Hep G2 TAT Ki: inhibition of dexamethasone-induced TAT in HepG2 cells (96 well). The following applies: challenge of 100 nM dexamethasone, IC50 converted to Ki by Cheng and Prusoff equation. Format: cell-based. In outline: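 Cells lysed 15 min at 4 °C; TAT enzyme reaction 2 h at 37 °C, stopped with KOH, 30 min further at 37 °C. Inhibition fitted to 4-parameter logistic.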
Take `CCn1cc(S(=O)(=O)N2CCN(CC(C)C(F)(F)F)C(c3cc4cnn(-c5ccc(F)cc5)c4cc3C)C2)cn1` (single isomer, unassigned) [Example 144, 5-(4-((1-ethyl-1H-pyrazol-4-yl)sulfonyl)-1-(3,3,3-trifluoro-2-methylpropyl)piperazin-2-yl)-1-(4-fluorophenyl)-6-methyl-1H-indazole]: the affinity corresponds to a Ki of 15 nM. In other words, the double-digit nanomolar range.

The compound `Cc1cc2c(cnn2-c2ccc(F)cc2)cc1C1CN(S(=O)(=O)c2cccnc2)CCN1CC(C)C(F)(F)F` (single isomer, unassigned) [Example 145, 1-(4-fluorophenyl)-6-methyl-5-(4-(pyridin-3-ylsulfonyl)-1-(3,3,3-trifluoro-2-methylpropyl)piperazin-2-yl)-1H-indazole] returned an inhibitory constant (Ki) of 8.5 nM.

With `Cc1nc(S(=O)(=O)N2CCN(CC(C)C(F)(F)F)C(c3cc4cnn(-c5ccc(F)cc5)c4cc3C)C2)cs1` (single isomer, unassigned) [Example 146, 4-((3-(1-(4-fluorophenyl)-6-methyl-1H-indazol-5-yl)-4-(3,3,3-trifluoro-2-methylpropyl)piperazin-1-yl)sulfonyl)-2-methylthiazole], the inhibitory constant (Ki) amounted to 7.5 nM.

Turning to `Cc1ncc(S(=O)(=O)N2CCN(CC(C)C(F)(F)F)C(c3cc4cnn(-c5ccc(F)cc5)c4cc3C)C2)s1` (single isomer, unassigned) [Example 147, 5-((3-(1-(4-fluorophenyl)-6-methyl-1H-indazol-5-yl)-4-(3,3,3-trifluoro-2-methylpropyl)piperazin-1-yl)sulfonyl)-2-methylthiazole], the inhibition constant Ki was determined as 11 nM.

On to `CCn1ncc(S(=O)(=O)N2CCN(CC(C)C(F)(F)F)C(c3cc4cnn(-c5ccc(F)cc5)c4cc3C)C2)n1` (single isomer, unassigned) [Example 148, 5-(4-((2-ethyl-2H-1,2,3-triazol-4-yl)sulfonyl)-1-(3,3,3-trifluoro-2-methylpropyl)piperazin-2-yl)-1-(4-fluorophenyl)-6-methyl-1H-indazole], for which the inhibition constant (Ki) was 38 nM.

`Cc1cc2c(cnn2-c2ccc(F)cc2)cc1C1CN(S(=O)(=O)c2cnccc2C)CCN1CC(C)C(F)(F)F` (single isomer, unassigned) [Example 149, 1-(4-fluorophenyl)-6-methyl-5-(4-((4-methylpyridin-3-yl)sulfonyl)-1-(3,3,3-trifluoro-2-methylpropyl)piperazin-2-yl)-1H-indazole] registered a Ki of 56 nM. The Ki values of the last two compounds are within 1.5-fold of each other.

As for `Cc1cc2c(cnn2-c2ccc(F)cc2)cc1C1CN(S(=O)(=O)c2ccccn2)CCN1CC(C)C(F)(F)F` (single isomer, unassigned) [Example 150, 1-(4-fluorophenyl)-6-methyl-5-(4-(pyridin-2-ylsulfonyl)-1-(3,3,3-trifluoro-2-methylpropyl)piperazin-2-yl)-1H-indazole], the Ki was found to be 19 nM.

The compound `Cc1cc2c(cnn2-c2ccc(F)cc2)cc1C1CN(S(=O)(=O)C2CCC2)CCN1CC(C)C(F)(F)F` (single isomer, unassigned) [Example 151, 5-(4-(cyclobutylsulfonyl)-1-(3,3,3-trifluoro-2-methylpropyl)piperazin-2-yl)-1-(4-fluorophenyl)-6-methyl-1H-indazole] returned a Ki of 35 nM. This Ki is about 1.8-fold higher than that of the compound before.

For `Cc1cc2c(cnn2-c2ccc(F)cc2)cc1C1CN(S(=O)(=O)c2cnn(C)n2)CCN1CC1CC(F)C1` (single isomer, unassigned) [Example 156, 5-(1-((3-fluorocyclobutyl)methyl)-4-((2-methyl-2H-1,2,3-triazol-4-yl)sulfonyl)piperazin-2-yl)-1-(4-fluorophenyl)-6-methyl-1H-indazole], affinity was put at a Ki of 28 nM.

Compound `Cc1cc2c(cnn2-c2ccc(F)cc2)cc1C1CN(S(=O)(=O)c2cnn(C)n2)CCN1CC(C)(F)F` (single isomer, unassigned) [Example 157, 5-(1-(2,2-difluoropropyl)-4-((2-methyl-2H-1,2,3-triazol-4-yl)sulfonyl)piperazin-2-yl)-1-(4-fluorophenyl)-6-methyl-1H-indazole] registered an inhibition constant Ki of 43 nM.

Consider `Cc1cc2c(cnn2-c2ccc(F)cc2)cc1C1CN(S(=O)(=O)c2cnn(C)n2)CCN1CC1CC1(F)F` (single isomer, unassigned) [Example 160, 5-(1-((2,2-difluorocyclopropyl)methyl)-4-((2-methyl-2H-1,2,3-triazol-4-yl)sulfonyl)piperazin-2-yl)-1-(4-fluorophenyl)-6-methyl-1H-indazole], for which the affinity, expressed as Ki, was 32 nM.

In turn, `Cc1cc2c(cnn2-c2ccc(F)cc2)cc1C1CN(S(=O)(=O)c2cnn(C)n2)CCN1CC(C)(C)C` (single isomer, unassigned) [Example 161, 1-(4-fluorophenyl)-6-methyl-5-(4-((2-methyl-2H-1,2,3-triazol-4-yl)sulfonyl)-1-neopentylpiperazin-2-yl)-1H-indazole] displayed a Ki of 57 nM.

`Cc1cc2c(cnn2-c2ccc(F)cc2)cc1C1CN(S(=O)(=O)c2cnn(C)n2)CCN1CC(C)(C)C(F)(F)F` (single isomer, unassigned) [Example 163, 1-(4-fluorophenyl)-6-methyl-5-(4-((2-methyl-2H-1,2,3-triazol-4-yl)sulfonyl)-1-(3,3,3-trifluoro-2,2-dimethylpropyl)piperazin-2-yl)-1H-indazole] displayed a Ki of 44 nM.

Turning to `Cc1cc2c(cnn2-c2ccc(F)c(C#N)c2)cc1C1CN(S(=O)(=O)c2cnn(C)n2)CCN1CCC(F)(F)F` (single isomer, unassigned) [Example 169, 2-fluoro-5-(6-methyl-5-(4-((2-methyl-2H-1,2,3-triazol-4-yl)sulfonyl)-1-(3,3,3-trifluoropropyl)piperazin-2-yl)-1H-indazol-1-yl)benzonitrile], affinity was put at a Ki of 66 nM.

With `Cc1cc2c(cnn2-c2ccc(F)c(C#N)c2)cc1C1CN(S(=O)(=O)c2cnn(C)n2)CCN1CCC(F)(F)F` (single isomer, unassigned) [Example 170, 2-fluoro-5-(6-methyl-5-(4-((2-methyl-2H-1,2,3-triazol-4-yl)sulfonyl)-1-(3,3,3-trifluoropropyl)piperazin-2-yl)-1H-indazol-1-yl)benzonitrile], affinity was put at a Ki of 91 nM.

Consider `CO[C@H]1C[C@@H](CN2CCN(S(=O)(=O)c3csc(C)n3)CC2c2cc3cnn(-c4ccc(F)cc4)c3cc2C)C1` (single isomer, unassigned) [Example 171, 4-((3-(1-(4-fluorophenyl)-6-methyl-1H-indazol-5-yl)-4-((3-methoxycyclobutyl)methyl)piperazin-1-yl)sulfonyl)-2-methylthiazole], for which the affinity corresponds to a Ki of 24 nM. This Ki is about 3.8-fold lower than that of the compound before.

`CC[C@@H](C)N1CCN(S(=O)(=O)c2cnn(C)n2)C[C@@H]1c1cc2cnn(-c3ccc(F)cc3)c2cc1C` (stereo in doubt) [Example 122, 5-(1-(sec-butyl)-4-((2-methyl-2H-1,2,3-triazol-4-yl)sulfonyl)piperazin-2-yl)-1-(4-fluorophenyl)-6-methyl-1H-indazole] returned a Ki of 110 nM.

Take `Cc1cc2c(cnn2-c2ccc(F)cc2)cc1C1CN(S(=O)(=O)c2cnn(C)n2)CCN1Cc1ccccc1` (centres unmarked) [Example 2, 5-(1-benzyl-4-((2-methyl-2H-1,2,3-triazol-4-yl)sulfonyl)piperazin-2-yl)-1-(4-fluorophenyl)-6-methyl-1H-indazole]: the Ki is 81 nM.

The compound `COc1ccc(CN2CCN(S(=O)(=O)c3cnn(C)n3)CC2c2cc3cnn(-c4ccc(F)cc4)c3cc2C)cc1` (centres unmarked) [Example 3, 1-(4-fluorophenyl)-5-(1-(4-methoxybenzyl)-4-((2-methyl-2H-1,2,3-triazol-4-yl)sulfonyl)piperazin-2-yl)-6-methyl-1H-indazole] yielded an inhibitory constant (Ki) of 85 nM.

The compound `Cc1cc2c(cnn2-c2ccc(F)cc2)cc1C1CN(S(=O)(=O)c2cnn(C)n2)CCN1CC(C)C` (centres unmarked) [Example 4, 1-(4-fluorophenyl)-5-(1-isobutyl-4-((2-methyl-2H-1,2,3-triazol-4-yl)sulfonyl)piperazin-2-yl)-6-methyl-1H-indazole] came in with an inhibitory constant (Ki) of 41 nM.

On to `Cc1cc2c(cnn2-c2ccc(F)cc2)cc1C1CN(S(=O)(=O)c2cnn(C)c2)CCN1CC(C)C` (centres unmarked) [Example 7, 1-(4-fluorophenyl)-5-(1-isobutyl-4-((1-methyl-1H-pyrazol-4-yl)sulfonyl)piperazin-2-yl)-6-methyl-1H-indazole], for which the Ki is 62 nM.

`Cc1cc2c(cnn2-c2ccc(F)cc2)cc1C1CN(S(=O)(=O)C2CC2)CCN1CC(C)C` (centres unmarked) [Example 8, 5-(4-(cyclopropylsulfonyl)-1-isobutylpiperazin-2-yl)-1-(4-fluorophenyl)-6-methyl-1H-indazole] displayed an inhibition constant Ki of 66 nM.

In turn, `COCCn1cc(S(=O)(=O)N2CCN(CC(C)C)C(c3cc4cnn(-c5ccc(F)cc5)c4cc3C)C2)cn1` (centres unmarked) [Example 9, 1-(4-fluorophenyl)-5-(1-isobutyl-4-((1-(2-methoxyethyl)-1H-pyrazol-4-yl)sulfonyl)piperazin-2-yl)-6-methyl-1H-indazole] displayed a Ki of 72 nM.

Broadly, the Ki is the equilibrium dissociation constant of an inhibitor or competing ligand from its target. A lower Ki goes with tighter binding.
